One molecule from PMC12131194, “Rational design, synthesis, and evaluation of novel polypharmacological compounds targeting NaV1.5, KV1.5, and K2P channels for atrial fibrillation” (The Journal of Biological Chemistry, 2025) can be followed below.

What is called inhibition is the drop in the measured response relative to a control, in per cent. A low value points to a response near the control.

Holding throughout (type): cell-based
Data set [1] concerns the target T1, human Kv1.5 (Homo sapiens, UniProt P22460).
T1 construct: KV1.5 (NM_002234), and TASK-1 (NM_002246); expressed in transfected cells; host or cells: HEK-293 (transient transfection)
In words: Whole-cell patch-clamp in transfected HEK-293 cells, KV1.5. The note with it: 10 μM and 100 μM, +40 mV. As for the experimental part: (§1) The human embryonic kidney 293 (HEK-293) cell line was obtained from the American Type Culture Collection. HEK-293 cells were cultured in Dulbecco’s modified Eagle’s medium (DMEM-F12, Invitrogen Life Technologies) supplemented with 5% (v/v) fetal bovine serum (FBS) (Thermo Fisher Scientific) and 1% antibiotics (penicillin 100 U/ml y streptomycin 100 μg/ml) (Gibco, Thermo Fisher). The cells were maintained at 37 °C and 5% CO2 atmosphere.
(§2) For the electrophysiological experiments, HEK-293 cells were transiently transfected with cDNA encoding human NaV1.5 (plasmid 145,374, Addgene), KV1.5 (NM_002234), and TASK-1 (NM_002246). […] The cells were incubated for 4 h in transfection medium OptiMEM (Invitrogen). […]
(§3) For Nav1.5, the effect of 6f at both concentrations was tested using a repetitive single test voltage pulse at −10 mV (during 20 ms) from a holding potential of −80 mV, with intervals of 5s between pulses. For Kv1.5 and TASK-1, ramp voltage protocols were applied with pulse intervals of 20 s, and the currents were analyzed at +40 mV. […]
(§4) After recording currents with stable amplitudes, the cells were treated with 6f and applied from the bath solution. Currents were continuously recorded during repetitive pulses until a stable effect was achieved. […] The inhibition percentage was calculated as follows: Inℎibition (%) = 100 ∗ (Icontrol − Idrug)/Icontrol.
(The patch-clamp technique gives a direct electrical read-out from membranes.)

The subject of data set [2] is human erythrocytes. Kind of data set: Hemolysis assay. As to conditions: 0.2–400 μM, 2 hours, 37 °C. As for the experimental part: To evaluate cytotoxicity, the hemolysis of the compounds with the best simultaneous blocking activity on the channels (6e, 6f, 7a, 7b and 7c) was considered, modifying the protocol of Chen 2018 ([112]). Thus, non-heparinized human blood was collected. Erythrocytes were washed three times in 1× PBS (phosphate-buffered saline: NaCl, 8 g/L; KCl, 0.2 g/L; Na2HPO4, 1.44 g/L; and KH2PO4, 0.24 g/L; pH 7.4) and then used to prepare a 3% red blood cell (RBC) suspension. The assay was performed in a 96-well polypropylene microplate.
The compounds were prepared from 200 mM stock solutions in DMSO. Subsequently, 1:2 serial dilutions were made in 1× PBS, with final concentrations from 400 to 0.2 μM to a final volume of 200 μl per well. The microplate was incubated for 2 h at 37 °C and centrifuged at 3400 rpm for 5 min. Finally, 100 μl of the supernatant was transferred and measured in a 96-well plate. Hemoglobin release was monitored by photometric analysis of the supernatant at 540 nm using an Epoch Microplate Spectrophotometer (BioTek Instruments, Inc. Winooski, Vermont 05404-0998).
A 3% RBC suspension treated with Tween 20 was used to obtain total lysis as a positive control. Other authors who performed hemolysis assays have also considered this and other detergents, such as Triton X-100 and Sodium Dodecyl Sulfate (SDS) as positive controls ([113], [114], [115], [116]). The negative control was a suspension of red blood cells with PBS. Each experiment was performed in triplicate at all concentrations used. The percentage of hemolysis was calculated with the following (Equation 1), where Ad: absorbance of the dilution, A0: absorbance of the blank (RBC suspension with PBS), and At: total absorbance (positive control).(1) %hemolysis=Ad−A0/At−A0x100

Data set [3] deals with human TASK-1 (Homo sapiens, UniProt O14649). Kind of data set: Whole-cell patch-clamp in transfected HEK-293 cells, TASK-1. Details: human TASK-1 (KCNK3, NM_002246); expressed in transfected cells. As to conditions: HEK293, +40 mV. As for the experimental part:
as §1, §2, §3, §4

Sequence of human TASK-1 (O14649 whole entry): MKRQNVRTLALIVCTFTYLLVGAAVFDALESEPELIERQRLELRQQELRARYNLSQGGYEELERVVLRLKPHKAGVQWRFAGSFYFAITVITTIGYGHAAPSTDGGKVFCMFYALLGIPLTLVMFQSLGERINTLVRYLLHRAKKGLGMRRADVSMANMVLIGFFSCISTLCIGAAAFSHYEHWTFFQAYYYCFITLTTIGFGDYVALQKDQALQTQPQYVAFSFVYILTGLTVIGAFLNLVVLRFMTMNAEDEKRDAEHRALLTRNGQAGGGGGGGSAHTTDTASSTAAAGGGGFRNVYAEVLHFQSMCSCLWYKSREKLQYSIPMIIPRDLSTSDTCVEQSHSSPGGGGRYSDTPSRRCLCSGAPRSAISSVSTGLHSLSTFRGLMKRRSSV
T1 sequence (P22460 whole entry): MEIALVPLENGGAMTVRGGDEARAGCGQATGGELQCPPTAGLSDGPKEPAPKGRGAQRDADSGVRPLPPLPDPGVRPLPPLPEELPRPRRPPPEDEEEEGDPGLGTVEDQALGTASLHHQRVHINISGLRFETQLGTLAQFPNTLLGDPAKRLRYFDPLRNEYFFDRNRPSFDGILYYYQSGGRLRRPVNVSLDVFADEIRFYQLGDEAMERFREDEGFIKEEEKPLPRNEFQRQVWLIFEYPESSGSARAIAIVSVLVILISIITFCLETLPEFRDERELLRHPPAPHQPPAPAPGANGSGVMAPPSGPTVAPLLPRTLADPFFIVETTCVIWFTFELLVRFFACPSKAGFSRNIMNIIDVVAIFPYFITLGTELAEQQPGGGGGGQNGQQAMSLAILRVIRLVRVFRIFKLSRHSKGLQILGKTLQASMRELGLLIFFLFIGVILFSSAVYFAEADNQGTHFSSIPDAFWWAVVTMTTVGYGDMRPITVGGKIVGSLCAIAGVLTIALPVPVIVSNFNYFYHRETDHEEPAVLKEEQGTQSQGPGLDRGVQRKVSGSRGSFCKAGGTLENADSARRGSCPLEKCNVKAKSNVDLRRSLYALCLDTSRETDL

`CCCCN(CCCC)CC(=O)Nc1ccc(OC)cc1OC` [Compound 6f, 2-(dibutylamine)-N-(2,4-dimethoxiphenyl)acetamide]: the “Blockade of KV1.5 in HEK cells” value in data set [1] is listed as “significant blockade by 6f only at 100 μM”. Also, the Hemolytic effect entry in data set [2] is recorded as “no hemolytic effect”. Moreover, in data set [3] (10 μM), the inhibition at 10 µM was found to be 70%. For the same molecule, the inhibition at 100 µM in data set [3] (100 μM) came out at 70%.
